Results as given in patent US20240083857A1, “2-Methyl-Quinazolines” (Bayer Pharma Aktiengesellschaft, priority 2017, published 2024).

Columns and labels:
[1] = target: K-Ras^G12C : hSOS1 interaction (Homo sapiens, UniProt Q07889); assay: Biochemical assay 1: K-Ras^G12C interaction assay with hSOS1 (HTRF); assay type: binding; conditions: for inhibition at 20 µM: read-out: Assay 1 (KRAS-SOS Interaction) activity expressed as % inhibition at 20 μM; for IC50: read-out: Assay 1 (KRAS-SOS Interaction) activity expressed as IC50
[2] = target: human SOS1 (nucleotide exchange of K-Ras^G12C) (Homo sapiens, UniProt Q07889); assay: Biochemical assay 2: K-Ras^G12C activation assay by hSOS1 at high GTP concentration (HTRF); conditions: high GTP; for inhibition at 20 µM: read-out: Assay 2 (KRAS-Activation by SOS high GTP) activity expressed as % inhibition at 20 μM; for IC50: read-out: Assay 2 (KRAS-Activation by SOS high GTP) activity expressed as IC50
[3] = target: human SOS1 (loading of human K-Ras^G12C-GDP with fluorescent GTP-analog) (Homo sapiens, UniProt Q07889); assay: Biochemical assay 3: K-Ras^G12C activation assay by hSOS1 (HTRF); conditions: no GTP; for inhibition at 20 µM: read-out: Assay 3 (KRAS-Activation by SOS no GTP) activity expressed as % inhibition at 20 μM; for IC50: read-out: Assay 3 (KRAS-Activation by SOS no GTP) activity expressed as IC50

SMILES	inhibition at 20 µM [1]	inhibition at 20 µM [2]	inhibition at 20 µM [3]	IC50 [1]	IC50 [2]	IC50 [3]
CCCOc1ccc(Cl)cc1-c1ccc([C@H](C)Nc2nc(C)nc3cc(OC)c(OC)cc23)s1 (stereo in doubt) [Example 144, N-{1-[5-(5-chloro-2-propoxyphenyl)thiophen-2-yl]ethyl}-6,7-dimethoxy-2-methylquinazolin-4-amine]	30%	12%	19%			
COc1cc2nc(C)nc(N[C@@H](C)c3ccc(-c4ccccc4Oc4ccccc4)s3)c2cc1OC (stereo in doubt) [Example 158, 6,7-dimethoxy-2-methyl-N-{1-[5-(2-phenoxyphenyl)thiophen-2-yl]ethyl}quinazolin-4-amine]	29%	4%	10%			
COc1cc2nc(C)nc(N[C@@H](C)c3ccc(-c4ccc(NC(=O)OC(C)(C)C)cc4)s3)c2cc1OC (stereo in doubt) [Example 159, tert-butyl [4-(5-{1-[(6,7-dimethoxy-2-methylquinazolin-4-yl)amino]ethyl}thiophen-2-yl)phenyl]carbamate]	43%	27%	35%			
COc1cc2nc(C)nc(N[C@@H](C)c3ccc(-c4ccc5c(c4)OCCN5C)s3)c2cc1OC (stereo in doubt) [Example 164, 6,7-dimethoxy-2-methyl-N-{1-[5-(4-methyl-3,4-dihydro-2H-1,4-benzoxazin-7-yl)thiophen-2-yl]ethyl}quinazolin-4-amine]	41%	19%	22%			
COc1cc2nc(C)nc(N[C@@H](C)c3ccc(-c4cccc(OCC5CC5)c4)s3)c2cc1OC (stereo in doubt) [Example 170, N-[1-{5-[3-(cyclopropylmethoxy)phenyl]thiophen-2-yl}ethyl]-6,7-dimethoxy-2-methylquinazolin-4-amine]	45%	7%	15%			
Cc1nc(N[C@H](C)c2ccccc2)c2cc(Br)ccc2n1 [Example 29, 6-bromo-2-methyl-N-[(1R)-1-phenylethyl]quinazolin-4-amine]			44%	10.2 µM	10.9 µM	
Cc1nc(N[C@H](C)c2ccc(F)cc2)c2cc(Br)ccc2n1 [Example 31, 6-bromo-N-[(1R)-1-(4-fluorophenyl)ethyl]-2-methylquinazolin-4-amine]			49%	8.59 µM	9.51 µM	
COc1cc2nc(C)nc(N[C@H](C)c3cccc(-c4cc(N)ccc4C)c3)c2cc1OC [Example 36, N-[(1R)-1-(5′-amino-2′-methylbiphenyl-3-yl)ethyl]-6,7-dimethoxy-2-methylquinazolin-4-amine]				0.542 µM	1 µM	0.696 µM
COc1cc2nc(C)nc(N[C@H](C)c3cccc(-c4cncnc4)c3)c2cc1OC [Example 37, 6,7-dimethoxy-2-methyl-N-{(1R)-1-[3-(pyrimidin-5-yl)phenyl]ethyl}quinazolin-4-amine]				1.54 µM	1.85 µM	2.69 µM
COc1cc2nc(C)nc(N[C@H](C)c3cccc(-c4cccc5cnccc45)c3)c2cc1OC [Example 39, N-{(1R)-1-[3-(isoquinolin-5-yl)phenyl]ethyl}-6,7-dimethoxy-2-methylquinazolin-4-amine]				1.46 µM	1.83 µM	3.05 µM
COc1cc2nc(C)nc(N[C@H](C)c3cccc(-c4c(F)ccc(C)c4Cl)c3)c2cc1OC [Example 40, N-[(1R)-1-(2′-chloro-6′-fluoro-3′-methylbiphenyl-3-yl)ethyl]-6,7-dimethoxy-2-methylquinazolin-4-amine]				3.85 µM	1.75 µM	4.55 µM
COc1cc2nc(C)nc(N[C@H](C)c3cccc(-c4cncc(C)c4)c3)c2cc1OC [Example 41, 6,7-dimethoxy-2-methyl-N-{(1R)-1-[3-(5-methylpyridin-3-yl)phenyl]ethyl}quinazolin-4-amine]				0.972 µM	1.4 µM	1.67 µM
COc1cc2nc(C)nc(N[C@H](C)c3cccc(-c4cccc(-c5nnc(C)o5)c4)c3)c2cc1OC [Example 55, 6,7-dimethoxy-2-methyl-N-{(1R)-1-[3′-(5-methyl-1,3,4-oxadiazol-2-yl)biphenyl-3-yl]ethyl}quinazolin-4-amine]				0.674 µM	0.629 µM	0.724 µM
COc1cc2nc(C)nc(N[C@H](C)c3cccc(-c4cncc(S(C)(=O)=O)c4)c3)c2cc1OC [Example 56, 6,7-dimethoxy-2-methyl-N-[(1R)-1-{3-[5-(methylsulfonyl)pyridin-3-yl]phenyl}ethyl]quinazolin-4-amine]				1.47 µM	1.79 µM	2.56 µM
COc1cc2nc(C)nc(N[C@H](C)c3cccc(-c4ccc5c(c4)CC(=O)N5)c3)c2cc1OC [Example 57, 5-(3-{(1R)-1-[(6,7-dimethoxy-2-methylquinazolin-4-yl)amino]ethyl}phenyl)-1,3-dihydro-2H-indol-2-one]				0.414 µM	0.401 µM	0.629 µM
COc1cc2nc(C)nc(N[C@H](C)c3cccc(C4CC4(C)C)c3)c2cc1OC (stereo partly drawn) [Example 58, N-{(1R)-1-[3-(2,2-dimethylcyclopropyl)phenyl]ethyl}-6,7-dimethoxy-2-methylquinazolin-4-amine]				1.77 µM	1.64 µM	3.11 µM
COc1cc2nc(C)nc(N[C@H](C)c3cccc(-c4ccc(-c5nnc(C)o5)cc4)c3)c2cc1OC [Example 59, 6,7-dimethoxy-2-methyl-N-{(1R)-1-[4′-(5-methyl-1,3,4-oxadiazol-2-yl)biphenyl-3-yl]ethyl}quinazolin-4-amine]				1.59 µM	0.77 µM	0.965 µM
COc1cc2nc(C)nc(N[C@H](C)c3cccc(-c4cnc5[nH]ccc5c4)c3)c2cc1OC [Example 60, 6,7-dimethoxy-2-methyl-N-{(1R)-1-[3-(1H-pyrrolo[2,3-b]pyridin-5-yl)phenyl]ethyl}quinazolin-4-amine]				0.585 µM	0.448 µM	1.04 µM
COc1cc2nc(C)nc(N[C@H](C)c3cccc(-c4cccc(S(N)(=O)=O)c4)c3)c2cc1OC [Example 61, 3′-{(1R)-1-[(6,7-dimethoxy-2-methylquinazolin-4-yl)amino]ethyl}biphenyl-3-sulfonamide]				0.374 µM	0.717 µM	0.895 µM
COc1cc2nc(C)nc(N[C@H](C)c3cccc(-c4cnc(N)nc4)c3)c2cc1OC [Example 62, N-{(1R)-1-[3-(2-aminopyrimidin-5-yl)phenyl]ethyl}-6,7-dimethoxy-2-methylquinazolin-4-amine]				1.26 µM	2.77 µM	2.63 µM
COc1cc2nc(C)nc(N[C@H](C)c3cccc(/C=C/C4CC4)c3)c2cc1OC [Example 63, N-[(1R)-1-{3-[(E)-2-cyclopropylethenyl]phenyl}ethyl]-6,7-dimethoxy-2-methylquinazolin-4-amine]				1.13 µM	1.8 µM	1.88 µM
CCOCc1ccccc1-c1cccc([C@@H](C)Nc2nc(C)nc3cc(OC)c(OC)cc23)c1 [Example 64, N-{(1R)-1-[2′-(ethoxymethyl)biphenyl-3-yl]ethyl}-6,7-dimethoxy-2-methylquinazolin-4-amine]				1.4 µM	1.96 µM	2.21 µM
